Measurements from patent US10227610B2, “Methods and compositions for enhancing nuclease-mediated gene disruption” (SANGAMO THERAPEUTICS, INC., priority 2013, dated 2019).

How the values were obtained:
Hepa 1-6 cells = test: Mutagenic repair (% indels) after albumin-specific ZFN, Surveyor/CelI assay and clone sequencing; type: cell-based
Protocol: In particular, the inhibitors Olaparib (PARP1-inhibitor) and NU7441 (DNA-PKcs inhibitor) were added 3 hours after mRNA delivery at concentration of 5 μM and 3-5 μM respectively. As a control, the ATM inhibitor KU55933 was added at a concentration of 10 μM (ATM has no direct role in DSB repair but is related to DNA-PKcs). After 15 hours, fresh inhibitors were added to the medium to counteract the decay of the inhibitors in the cell culture medium.
After a further 54 hours, cells were harvested and genomic DNA was prepared for Day 3 analysis by Surveyor™/CelI assay and DNA sequencing. For DNA sequencing the genomic target region of the ZFN was amplified by PCR, topo-cloned and 96 individual clones were sequenced. The sequences were analyzed and the results used to divide the clones into groups by the genome type (e.g. wild type genomes, those with insertions and/or deletions, and those with other modifications). At Day 3 harvest about a third of the cells were re-seeded in fresh medium without inhibitors and were grown until day 10 when they were harvested and analyzed by Surveyor™/CelI assay.

K562 cells [1] = test: ZFN-mediated targeted integration of ssOligo at CCR5 locus, RFLP assay and 96 colony sequencing; type: cell-based, human; settings: Day 3; for effect on targeted integration: KU55933 10 μM, Olaparib 5 μM added to DNA-PKcs inhibitor
Protocol: K562 cells were transfected by Amaxa® electroporation system with plasmid DNA encoding a CCR5-specific ZFN pair (see, U.S. Pat. No. 7,951,925) and a single-stranded oligonucleotide (ssOligo) (120 bp) which has homology to the target region and harbors a unique restriction site (Avr II). The cells then were treated twice with small molecule inhibitors described in Example 1 (outlined in FIG. 2A). In particular, the inhibitors Olaparib (PARP1/2-inhibitor) and NU7441 (DNA-PKcs-inhibitor) were added 5 hours after the ZFN-encoding DNA delivery at concentration of 5 μM and 3 μM, respectively. As a control, the ATM inhibitor KU55933 was added at a concentration of 10 μM. After 15 hours, fresh inhibitors were added to the medium to counteract the decay of the inhibitors in the cell culture medium. After a further 54 hours, the cells were harvested and genomic DNA was prepared for Day 3 analysis by Surveyor™/CelI assay, RFLP analysis and DNA sequencing.
The RFLP assay was carried out by digestion of the PCR amplified target locus with a restriction enzyme cutting in the integrated ssOligo. For DNA sequencing, the genomic target region of the ZFN was amplified by PCR, topo-cloned and 96 individual clones were sequenced.

K562 cells [2] = test: Targeted integration of AAVS1 oligo with double-stranded cleaving or nickase ZFNs, HindIII digestion; type: cell-based, human; settings: NU1025 for 24 hr or 48 hr
Protocol: In another experiment, K562 cells were treated with the PARP1 inhibitor NU1025. Briefly, two million K562 cells were nucleofected with 5 μg of double-stranded cleaving or nickase ZFNs specific for AAVS1 (U.S. Pat. No. 8,110,379) with or without 3 μl of an antisense AAVS1 oligo (100 μM). The cells were immediately treated with PARP inhibitor NU1025 after nucleofection for 24 hr or 48 hr. All cells were harvested 48 hr after nucleofection. 1.0 μg of PCR DNA was subjected to HindIII digestion.

CHO K1 cells = test: Targeted integration of double stranded donor at glutamine synthetase (GS) locus, RFLP; type: cell-based
Protocol: The use of DNA PKcs inhibitors during insertion of a double stranded donor in CHO K1 cells was also tested. For this experiment, a donor that was delivered either via a plasmid (FIG. 4E) or via a PCR fragment (FIG. 4F). Briefly, CHO K1 cells were transfected with Nucleofector Kit V on an Amaxa® instrument. The transfection components and their dosages were as follows: one million CHO K1 cells suspended in 100 μl of Nucleofection™ Solution V; 4 μg each of two in vitro transcribed ZFN mRNAs engineered for inducing DSBs at the glutamine synthetase locus (GS) in CHO cells (see, e.g., U.S. Pat. No. 8,153,399); 2 μg (FIG. 4E) or 4 μg (FIG. 4F) of in vitro transcribed CHO or human Rad52 mRNA; 10 μg of plasmid donor (3.8 kb) or PCR fragment donor (1.1 kb). The plasmid donor and the PCR fragment donor both carried the same target integration sequence, containing two 500 bp homologous arms, two loxP sites, and a multiple cloning site.
DNA-PKcs inhibitor NU7026 or NU7441 was added into 2 ml per well of pre-warmed culture medium in a 6-well plate at concentration of 20 μM or 16 respectively, before transfected cells were added into the medium. Cells were grown in the inhibitor-containing medium for 24 hours at 37° C. and 5% CO2. The medium was then replaced with fresh medium without inhibitor. DMSO was used as inhibitor blank control. […]

K562 cells [3] = test: Nickase ZFN with ssOligo at CCR5, Surveyor/CelI assay and sequencing; type: cell-based, human
From the text: K562 cells were transfected by Amaxa electroporation system with plasmid DNA encoding a CCR5-specific ZFN pair (see, U.S. Pat. No. 7,951,925) and a single-stranded oligonucleotide (ssOligo) (120 bp) which has homology to the target region and harbors a unique restriction site (Avr II). […] Due to the less deleterious nature of this kind of DNA damage, recombination events mediated by ssDNA breaks may be preferable over DSBs. However, the frequency of gene modification mediated via ssDNA breaks is very low. DNA-PKcs and PARP inhibitors were used in an attempt to increase the frequency of gene modification mediated via ssDNA breaks (“nicks”).
Briefly, the transfected K562 cells were treated twice with either PARP1/2 inhibitor (Olaparib-5 μM) or DNA-PKcs inhibitor (NU7441-3 μM) 5 hours and 15 hours after transfection to counteract the decay of the inhibitors in the cell culture medium. After a further 54 hours, cells were harvested and genomic DNA was prepared for Day 3 analysis by Surveyor™/CelI assay, RFLP analysis and DNA sequencing as described in Example 1. The RFLP assay was carried out by digestion of the PCR amplified target locus with a restriction enzyme cutting in the integrated ssOligo. For DNA sequencing, the genomic target region of the ZFN was amplified by PCR, topo-cloned, and 96 individual clones were sequenced.

CD34+ cells = test: Targeted integration of ssOligo at CCR5 in primary cells, clone sequencing; type: cell-based; settings: NU7441 3 μM, Day 3; at the expense of 5-nucleotide duplications and deletions
Protocol: Specifically, donor derived CD34+ cells were transfected 3 days after culture in medium suppressing differentiation. This was carried out by the BTX electroporation system with mRNA DNA encoding a CCR5-specific ZFN pair and a ssOligonucleotide (120 bp) which has homology to the target region and harbors a unique restriction site (Avr II). The cells were then treated twice with small molecule inhibitors as described in Example 1. In particular, the inhibitor NU7441 (DNA-PKcs-inhibitor) was added 3 hours after mRNA delivery at a concentration of 3 μM. After 15 hours, fresh inhibitors were added to the medium to counteract the decay of the inhibitors in the cell culture medium. After a further 54 hours, cells were harvested and genomic DNA was prepared for Day 3 analysis by DNA sequencing. For DNA sequencing the genomic target region of the ZFN was amplified by PCR, topo-cloned, and 96 individual clones were sequenced.

K562 cells [4] = test: TALEN-mediated targeted integration at human CCR5 locus, deep sequencing; type: cell-based
Protocol: See, e.g., U.S. Pat. No. 8,586,526. K562 cells were transfected by AMAXA with plasmid DNA encoding either hCCR5 TALENs or ZFNs and then the cells were treated with DMSO or DNA-PKcs inhibitor NU7441. Cells were harvested at Day 3 and Day 10 and genomic PCR was analyzed after PCR by deep sequencing.

HEK293 cells = test: Targeted integration of ssDNA oligo donor at AAVS1 locus, RFLP; type: cell-based, human; settings: NU7441 10 μM
Protocol: We next used the inhibitors to measure their effect on targeted integration of single-stranded donors. Briefly, HEK293 and MCF7 cells were transfected with Nucleofector Kit V and MCF10A cells were transfected with Nuleofector™ Kit L on an Amaxa® instrument. The transfection components and their dosages were as follows: 0.8 million cells suspended in 100 μL of nucleofection solution; 3 μg each of two in vitro transcribed ZFN mRNAs engineered for inducing DSBs at the AAVS1 locus in human cells (see, e.g., U.S. Pat. No. 8,110,379); 0.3 nmol of a 100-nt ssDNAoligo donor. The oligo donor carried a HindIII restriction site at the position of 20 bp upstream of the ZFN cleavage site, and the HindIII site was used as marker for target integration analysis by RFLP. DNA-PKcs inhibitor NU7441 was added into 2 ml per well of pre-warmed culture medium in a 6-well plate at concentration of 10 μM for HEK293 and MCF7, and 15 or 20 μM for MCF10A before transfected cells were added into the medium. Cells were grown in the inhibitor-containing medium for 24 hours at 37° C. and 5% CO2. The medium was then replaced with fresh medium without inhibitor. DMSO was used as inhibitor blank control. For genomic DNA preparation, HEK293 and MCF10A cells were harvested 3 days after transfection, and MCF7 cells were harvested 5 days after nucleofection. […]

Structure (SMILES): O=c1cc(-c2cccc3c2Sc2ccccc2S3)oc(N2CCOCC2)c1 [KU55933]
- effect on mutagenic repair (Hepa 1-6 cells; KU55933 10 μM control): slight decrease
- effect on targeted integration (K562 cells [1]): no effect

Structure (SMILES): Cc1nc2c(O)cccc2c(=O)[nH]1 [NU1025]
- integration of AAVS1 oligo (K562 cells [2]): detectable integration

Structure (SMILES): O=c1cc(N2CCOCC2)oc2c1ccc1ccccc12 [NU7026]
- plasmid donor-based target integration (CHO K1 cells; NU7026 alone, 20 μM): no apparent increase

Structure (SMILES): O=c1cc(N2CCOCC2)oc2c(-c3cccc4c3sc3ccccc34)cccc12 [NU7441]
- increase of mutagenic repair (Hepa 1-6 cells; Day 10, after withdrawal of inhibitors): about 2 fold
- CelI signal (indels) (K562 cells [3]; Nickase ZFNs co-transfected with ssOligo, NU7441 3 μM, Olaparib 5 μM): 7%
- clones with non-WT sequence (perfect targeted integration of the ssOligo) (K562 cells [3]; sequencing of 96 clones): one of 96
- increase of targeted integration (K562 cells [1]; NU7441 3 μM, RFLP and 96 colony sequencing): 2-3 fold
- targeted integration (CD34+ cells): slight increase
- TALEN-mediated targeted integration (K562 cells [4]; Day 3, vs DMSO): up to two fold
- share of all genome editing events that are targeted integrations (K562 cells [4]; TALENs, after NU7441 treatment): more than half
- unwanted mutagenic events (Indels) (K562 cells [4]; TALENs, after NU7441 treatment): drastically reduced
- increase of PCR fragment donor-based target integration (CHO K1 cells; PCR fragment donor): about 5 fold
- targeted integration of a single stranded donor (HEK293 cells): increased

Structure (SMILES): O=C(c1cc(Cc2n[nH]c(=O)c3ccccc23)ccc1F)N1CCN(C(=O)C2CC2)CC1 [Olaparib]
- effect on targeted integration (K562 cells [1]): did not further increase
